Publication PMC5607265, “Design, synthesis and structure-activity relationship of 3,6-diaryl-7H-[1,2,4]triazolo[3,4-b][1,3,4]thiadiazines as novel tubulin inhibitors” (Scientific Reports, 2017)

Key:
[1] = system: gastric adenocarcinoma SGC-7901 cells; test: MTT antiproliferative assay, SGC-7901; type: cell-based, human; conditions: Homo sapiens, SGC-7901; MTT assay, 24 h exposure, triplicate; read-out: IC50 SGC-7901
Description: (§1) The SGC-7901, A549 and HT-1080 cell lines were purchased from the American Type Culture Collection (ATCC, Manassas, VA, USA). […] Briefly, approximately 3 × 10^4 cells were seeded in a 96-well plate. After 24 h of incubation at 37 °C, cells were exposed to compounds of differing concentrations for 24 h. After treatment, cells were washed with 1X PBS followed by addition of 100 µL of 0.05% MTT reagent to each well, followed by incubation for 4 h at 37 °C. After incubation, the supernatant from each well was carefully removed and the formazan crystals were dissolved in 100 µL of DMSO. The colour density was measured spectrophotometrically at 490 nm using a microplate reader (SpectraMax Plus384, Molecular Devices Corp., USA). The data were calculated and plotted as percent viability compared to control.
as §1

[2] = system: lung adenocarcinoma A549 cells; test: MTT antiproliferative assay, A549; type: cell-based, human; conditions: Homo sapiens, A549; MTT assay, 24 h exposure, triplicate; read-out: IC50 A549
Description: as §1, §1

[3] = system: fibrosarcoma HT-1080 cells; test: MTT antiproliferative assay, HT-1080; type: cell-based, human; conditions: Homo sapiens, HT-1080; MTT assay, 24 h exposure, triplicate; read-out: IC50 HT-1080
Description: as §1, §1

| Compound | IC50 [1] [µM] | IC50 [2] [µM] | IC50 [3] [µM] | melting point [°C] |
| --- | --- | --- | --- | --- |
| COc1ccc(C2=Nn3c(nnc3-c3cc(OC)c(OC)c(OC)c3)SC2)cc1F [Compound 5e, 3-(3,4,5-Trimethoxyphenyl)-6-(3-fluoro-4-methoxyphenyl)-7H-[1,2,4]triazolo[3,4-b][1,3,4]thiadiazine] | 4.28 | 3.21 | 1.31 | 115 to 118 |
| COc1ccc(C2=Nn3c(nnc3-c3ccc(OC)c(OC)c3OC)SC2)cc1OCc1ccccc1 [Compound 4k, 3-(2,3,4-Trimethoxyphenyl)-6-(3-benzyloxy-4-methoxyphenyl)-7H-[1,2,4]triazolo[3,4-b][1,3,4]thiadiazine] | 28.9 | 8.9 | 28.3 | 85 to 86 |
| COc1ccc(C2=Nn3c(nnc3-c3cc(OC)c(OC)c(OC)c3)SC2)cc1OCc1ccccc1 [Compound 5h, 3-(3,4,5-Trimethoxyphenyl)-6-(3-benzyloxy-4-methoxyphenyl)-7H-[1,2,4]triazolo[3,4-b][1,3,4]thiadiazine] | 1.66 | 2.94 | 1.57 | 93 to 94 |
| COc1ccc(C2=Nn3c(nnc3-c3cc(OC)c(OC)c(OC)c3)SC2)cc1N [Compound 5g, 3-(3,4,5-Trimethoxyphenyl)-6-(3-amino-4-methoxyphenyl)-7H-[1,2,4]triazolo[3,4-b][1,3,4]thiadiazine] | 1.25 | 1.08 | 0.18 | 112 to 115 |
| COc1cc(-c2nnc3n2N=C(c2ccc(Cl)cc2)CS3)cc(OC)c1OC [Compound 5a, 3-(3,4,5-Trimethoxyphenyl)-6-(4-chlorophenyl)-7H-[1,2,4]triazolo[3,4-b][1,3,4]thiadiazine] | 1.37 | 0.27 | 0.88 | 125 to 127 |
| COc1cc(-c2nnc3n2N=C(c2ccc(SC)cc2)CS3)cc(OC)c1OC [Compound 5d, 3-(3,4,5-Trimethoxyphenyl)-6-(4-methylthiophenyl)-7H-[1,2,4]triazolo[3,4-b][1,3,4]thiadiazine] | 0.13 | 0.46 | 0.18 | 92 to 94 |
| COc1ccc(-c2nnc3n2N=C(c2ccc(OC)c([N+](=O)[O-])c2)CS3)cc1 [Compound 6j, 3-(4-Methoxyphenyl)-6-(3-nitro-4-methoxyphenyl)-7H-[1,2,4]triazolo[3,4-b][1,3,4]thiadiazine] | 8.04 | 5.68 | 2.32 | 97 to 99 |
| COc1ccc(-c2nnc3n2N=C(c2ccc(OC)c([N+](=O)[O-])c2)CS3)cc1OC [Compound 6f, 3-(3,4-Dimethoxyphenyl)-6-(3-nitro-4-methoxyphenyl)-7H-[1,2,4]triazolo[3,4-b][1,3,4]thiadiazine] | 5.04 | 3.68 | 3.32 | 190 to 192 |
| COc1ccc(C2=Nn3c(nnc3-c3ccc4c(c3)OCO4)SC2)cc1OCc1ccccc1 [Compound 6d, 3-(3,4-Methylenedioxyphenyl)-6-(3-benzyloxy-4-methoxyphenyl)-7H-[1,2,4]triazolo[3,4-b][1,3,4]thiadiazine] | 8.49 | 16.3 | 7.32 | 86 to 88 |
| COc1ccc(-c2nnc3n2N=C(c2ccc(SC)cc2)CS3)c(OC)c1OC [Compound 4g, 3-(2,3,4-Trimethoxyphenyl)-6-(4-methylthiophenyl)-7H-[1,2,4]triazolo[3,4-b][1,3,4]thiadiazine] | 8.02 | 12.5 | 2.7 | 86 to 88 |
| COc1ccc(C2=Nn3c(nnc3-c3ccc(OC)c(OC)c3OC)SC2)cc1F [Compound 4h, 3-(2,3,4-Trimethoxyphenyl)-6-(3-fluoro-4-methoxyphenyl)-7H-[1,2,4]triazolo[3,4-b][1,3,4]thiadiazine] | 43.2 | 16.3 | 51.9 | 92 to 94 |
| COc1ccc(-c2nnc3n2N=C(c2ccc(Cl)cc2)CS3)c(OC)c1OC [Compound 4b, 3-(2,3,4-Trimethoxyphenyl)-6-(4-chlorophenyl)-7H-[1,2,4]triazolo[3,4-b][1,3,4]thiadiazine] | 24.5 | 23.2 | 24.7 | 88 to 90 |
